The test concerns the target T1, hepatic glucose-6-phosphatase (G6Pase).
T1 construct: gene G6pc1; native, microsomal fraction from livers of starved Wistar rats; not purified; with Glucose-6-phosphate exchanger SLC37A4
Put plainly: colorimetric phosphate release assay, rat liver microsomes. The format is biochemical. The note with it: 80 mM glucose-6-phosphate, 40 mM imidazole, 250 mM sucrose, pH 7, 20 °C, 20 min; positive control. On the technique in general: Microsomes from liver hold many membrane-bound enzymes, among them those of drug oxidation.

Values after ≈ are worked out from the molar mass of the structure shown.

As a reminder, the IC50 is the concentration that inhibits the measured activity by half. Read a low IC50 as inhibition by little substance.

As for `O=C(/C=C/c1ccc(O)c(O)c1)O[C@@H]1C[C@](O)(C(=O)O)C[C@@H](O)[C@H]1O` [chlorogenic acid], the IC50 was determined as 122.5 mg/L (≈ 346 µM).
